Entries after “also recorded” stand apart in the source; their conditions may differ. Read-outs that look alike come from different tables or passages of the source.
Experiments:
[1] = Pharmacokinetic study of tetrabenazine and dihydrotetrabenazine metabolites in plasma after oral tetrabenazine 25 mg tablets; assay type: in vivo, human; conditions: for Tmax / AUC(0-t) / AUC(0-inf) / Cmax / half-life / AUC: human, plasma; for Tmax: N=08, healthy adult male volunteers; for AUC(0-t): po; for Kel: unit inferred; for metabolite of tetrabenazine in humans (major/minor): after administration of tetrabenazine; for AUC: read-out: area under the curve (AUC)
Method: A pharmacokinetic study was carried out in healthy adult male volunteers under fasting conditions at a dose of single and multiple oral administration of 25 mg tablets once a day to ascertain the plasma levels of +/−α and +/−β dihydrotetrabenazine.
Table 1 summarises the pharmacokinetic data obtained following single-dose oral administration of tetrabenazine at a dose level of 25 mg (fasting, N=08).
Table 2 summarises the pharmacokinetic data obtained following multiple-dose oral administration of tetrabenazine at a dose level of 25 mg (fasting, N=07).

[2] = system: amphetamine induced locomotor activity in male CD rats; conditions: for total distance travelled: normalised
Method: Male CD (Charles River Laboratories, Germany) at weight range of 200-250 g (165-200 g upon arrival) were used for the experiments. Animals were housed at a standard temperature (22±1° C.) and in a light-controlled environment (lights on from 7 am to 8 pm) with ad libitum access to food and water.
The locomotor activity of the rats was tested in an open field arena. The open field test was performed during the rat light cycle and under a normal lighting evenly distributed to the test chambers. The paths of the rats were recorded by activity monitor (Med. Associates Inc.).
The rats were placed in the centre of the arena, and the path was recorded for 30 minutes. After 30 minutes of testing, vehicle or amphetamine was dosed and the rat was placed in the centre of the arena, and the path was recorded for 60 minutes, the total testing time being 90 minutes.

[3] = biological target: Chromaffin Granule Monoamine Transporter (Bos taurus, UniProt Q27963); conditions: racemic isomers, in vitro; cited from earlier work
[4] = single-dose oral tetrabenazine 25 mg, fasting
[5] = male, 25 mg, multiple-dose oral tetrabenazine 25 mg once a day, fasting, N=07
[6] = male, 25 mg, single-dose oral tetrabenazine 25 mg, fasting, N=08
[7] = male, single-dose oral tetrabenazine 25 mg, fasting, N=08
[8] = multiple-dose oral tetrabenazine 25 mg once a day, fasting, N=07
[9] = single-dose oral tetrabenazine 25 mg, fasting, N=08
[10] = oral, 25 mg, single dose study, tetrabenazine to adult male humans
[11] = Study 4, 1 mg/kg, compared to vehicle-amphetamine group
[12] = Study 6, each isomer 1 mg/kg, risperidone 1 mg/kg, compared to vehicle-amphetamine group, unnormalised

Chain of Chromaffin Granule Monoamine Transporter (Q27963 whole entry): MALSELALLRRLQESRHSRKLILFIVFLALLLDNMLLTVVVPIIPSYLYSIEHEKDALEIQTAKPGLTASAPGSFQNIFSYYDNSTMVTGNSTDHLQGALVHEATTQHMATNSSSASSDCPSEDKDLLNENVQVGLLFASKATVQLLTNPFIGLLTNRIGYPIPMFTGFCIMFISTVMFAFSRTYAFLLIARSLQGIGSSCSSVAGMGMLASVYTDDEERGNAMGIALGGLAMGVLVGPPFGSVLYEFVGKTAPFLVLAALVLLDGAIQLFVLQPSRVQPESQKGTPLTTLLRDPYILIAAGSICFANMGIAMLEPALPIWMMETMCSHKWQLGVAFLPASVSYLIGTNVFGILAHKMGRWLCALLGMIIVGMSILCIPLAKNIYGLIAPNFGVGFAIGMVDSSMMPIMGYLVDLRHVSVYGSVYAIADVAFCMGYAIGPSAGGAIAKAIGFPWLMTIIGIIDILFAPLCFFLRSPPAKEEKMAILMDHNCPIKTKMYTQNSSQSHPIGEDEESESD

| Molecule | Tmax [1, 4] [h] | AUC(0-t) [1, 5] [ng·h/mL] | AUC(0-t) [1, 6] [ng·h/mL] | AUC(0-inf) [1, 7] [ng·h/mL] | Cmax [1, 7] [ng/mL] | half-life [1, 7] [h] | Cmaxss [1, 8] [ng/mL] | Cminss [1, 8] [ng/mL] | Tmaxss Mean [1, 8] [h] | Extrapolated AUC [1, 9] [%] | Kel [1, 9] [h⁻¹] | Cmax [1, 10] [ng/mL] | AUC [1, 10] [ng·h/mL] | Ctss [1, 8] [ng/mL] | further results |
| --- | --- | --- | --- | --- | --- | --- | --- | --- | --- | --- | --- | --- | --- | --- | --- |
| COc1cc2c(cc1OC)C1CC(=O)C(CC(C)C)CN1CC2 (racemic) [Tetrabenazine, 1,3,4,6,7,11b-hexahydro-9,10-dimethoxy-3-(2-methylpropyl)-2H-benzo(a)quinolizin-2-one] | 0.87 | 2.79 | 1.87 | 2.42 | 0.58 | 4.35 | 0.73 | 0.01 | 96.89 | 27.54 | 0.19 | – | – | – | – |
| COc1cc2c(cc1OC)[C@@H]1C[C@H](O)[C@@H](CC(C)C)CN1CC2 [(−)-α-DHTBZ, (2S,3S,11bS)-3-isobutyl-9,10-dimethoxy-1,3,4,6,7,11b-hexahydro-2H-pyrido[2,1,a]isoquinolin-2-ol] | 0.938 | 474 | 306 | 352 | 72.9 | 7.89 | 98.34 | 5.61 | 96.96 | 10.59 | 0.1 | 72.9 | 306 | 6.10 | metabolite of tetrabenazine in humans (major/minor) ([1]; listed as (−)-α-dihydrotetrabenazine): major metabolites; also recorded: main metabolites; total stereotypic behaviour ([2]; Study 1, 2.5 mg/kg, compared to vehicle-amphetamine group): did not lead to lower locomotor activity or reduced stereotypic behaviour; total distance travelled / locomotor activity ([2]; Study 1, 2.5 mg/kg, compared to vehicle-amphetamine group, listed as (−)-α-isomer, 2.5 mg/kg): very little, if any, reduction in induced locomotor activity; total distance travelled ([2]; Study 1, 2.5 mg/kg, compared to vehicle-vehicle group): significantly different; observed behaviour of the rats ([2]; rat, in vivo, 2.5 mg/kg): less focused on what was going on around them |
| Cc1nc2n(c(=O)c1CCN1CCC(c3noc4cc(F)ccc34)CC1)CCCC2 [risperidone, reference compound] | – | – | – | – | – | – | – | – | – | – | – | – | – | – | total distance travelled ([2]; Study 1, 1 mg/kg, compared to vehicle-amphetamine group): significantly different; locomotor activity [2, 11]: lower locomotor activity; stereotypic behaviour [2, 11]: reduced stereotypic behaviour; total distance travelled / locomotor activity [2, 12]: lower locomotor activity; total stereotypic behaviour [2, 12]: reduced stereotypic behaviour |
| COc1cc2c(cc1OC)[C@H]1C[C@H](O)[C@H](CC(C)C)CN1CC2 [(+)-β-DHTBZ, (2S,3R,11bR)-3-isobutyl-9,10-dimethoxy-1,3,4,6,7,11b-hexahydro-2H-pyrido[2,1,a]isoquinolin-2-ol] | 1.12 | 599 | 376 | 410 | 103 | 5.8 | 144.76 | 5.45 | 97.11 | 5.03 | 0.13 | 103 | 376 | 5.54 | metabolite of tetrabenazine in humans (major/minor) ([1]; listed as (+)-β-dihydrotetrabenazine): major metabolites; also recorded: main metabolites |
| α-dihydrotetrabenazine | – | – | – | – | – | – | – | – | – | – | – | – | – | – | affinity relative to the β-isomer [3]: 3- to 4 fold |
| COc1cc2c(cc1OC)[C@H]1C[C@@H](O)[C@H](CC(C)C)CN1CC2 [(+)-α-DHTBZ, (2R,3R,11bR)-3-isobutyl-9,10-dimethoxy-1,3,4,6,7,11b-hexahydro-2H-pyrido[2,1,a]isoquinolin-2-ol] | 1.16 | 13.7 | 7.98 | 10.8 | 2.61 | 4.79 | 3.31 | 0.00 | 97.18 | 32.10 | 0.17 | 2.61 | 7.98 | 0.44 | metabolite of tetrabenazine in humans (major/minor) [1]: minor metabolites |
